38 compounds from patent US7803801B2, “Aminopyridine compounds having Syk inhibitory activity” (Japan Tobacco, Inc., priority 2005, dated 2010) can be followed below.

Test [1] deals with cultured human mast cells. The test can be described thus: Degranulation inhibition test using cultured human mast cells (IgE cross-linking, β-Hexosaminidase release). Type of test: cell-based. The following applies: Mast cell, cultured human mast cells, read-out: human degranulation ave. IC50. The procedure, abridged: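 CD34+ cord-blood cells cultured ≥8 weeks with SCF/IL-6/IL-3; FcεRI primed 5 days with rhIL-4 (1 ng/mL) and hIgE (0.5 μg/mL). Compound (0.1% DMSO) preincubated 10 min at 37 °C, then anti-IgE (final 10 μg/mL) 30 min; released β-hexosaminidase read at 405 nm versus total lysate, IC50 (M).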

For test [2], the target named is GST-Syk Full Protein (human) (Homo sapiens, UniProt P43405). Briefly: Syk kinase inhibition test (HTRF method). Type of test: biochemical. Conditions: read-out: sykHTRF ave IC50. The procedure, abridged:
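Human GST-Syk full-length (6.4 nM) phosphorylated biotin-EDPDYEWPSA-NH2 (250 nM) with 100 μM ATP in HEPES pH 7.0/MgCl2 buffer, 2% DMSO, 30 min at room temperature. EDTA stop, then HTRF detection (streptavidin-XL665, Eu anti-phosphotyrosine) after 1 h; 665/620 ratio read.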
In general terms: Time-resolved FRET reads energy transfer from a long-lived donor to a nearby acceptor.

The mark [3] stands for this setting: anti-hIgE stimulation, β-Hexosaminidase index, average.
The mark [4] stands for this setting: HTRF, 100 μM ATP, 30 min room temperature, average.

Structures can show the parent of a compound that is named as a salt. Where two headings read alike, the source gives them in different places.

Turning to `CC(=O)Oc1ccc(CC(OC(C)=O)c2ncc(-c3cccc(Nc4cc(C)ccn4)n3)s2)cc1` (stereo not shown) [Compound A-360], the IC50 in test [1] (setting [3]) and in test [2] (setting [4]) was > 1000 nM throughout.

With `Cc1ccnc(Nc2cccc(-c3cnc([C@H]4CC[C@H](C(=O)N(C)C)CC4)s3)n2)c1` [Compound A-264], the IC50 in test [1] (setting [3]) and in test [2] (setting [4]) was 100 to 1000 nM in each case.

For the compound `Cc1ccnc(Nc2cccc(-c3cnc([C@@H]4CCCC(=O)N4)s3)n2)c1` [Compound A-363], the IC50 in test [1] (setting [3]) and in test [2] (setting [4]) was 100 to 1000 nM throughout.

Regarding `Cc1ccnc(Nc2cccc(-c3cnc(CN4C[C@H](NCc5ccccc5)[C@@H](O)C4)s3)n2)c1` [Compound A-400], the IC50 lay within 100 to 1000 nM in test [1] (Tables 1-x, compounds A) and 100 to 1000 nM in test [2] (Tables 1-x, compounds A).

In the case of `Cc1ccnc(Nc2cccc(-c3cnc(N(C)C4CCN(C(=O)c5ccc(O)cc5)CC4)s3)n2)c1` [Compound A-513, (4-hydroxyphenyl)-[4-(N-methyl-N-{5-[6-(4-methylpyridin-2-ylamino)pyridin-2-yl]thiazol-2-yl}amino)piperidin-1-yl]methanone], the IC50 in test [1] (Tables 1-x, compounds A) was 100 to 1000 nM; in test [2] (Tables 1-x, compounds A), < 100 nM.

Consider `COCCN(c1ncc(-c2cccc(Nc3cc(C)ccn3)n2)s1)C1CCN(C(C)=O)CC1` [Compound A-526, 1-[4-(N-(2-methoxyethyl)-N-{5-[6-(4-methylpyridin-2-ylamino)pyridin-2-yl]thiazol-2-yl}amino)piperidin-1-yl]ethanone], for which the IC50 in test [1] (Tables 1-x, compounds A) is 100 to 1000 nM; in test [2] (Tables 1-x, compounds A) it was < 100 nM.

`Cc1ccnc(Nc2cccc(-c3cnc([C@@H](N)CCC(=O)OCc4ccccc4)s3)n2)c1` [Compound A-97]: the IC50 in test [1] (setting [3]) and in test [2] (setting [4]) was 100 to 1000 nM throughout.

Consider `CC(=O)N1CCC(N(CC(F)(F)F)c2ncc(-c3cccc(Nc4cc(C)ccn4)n3)s2)CC1` [Compound A-535, 1-{4-[N-{5-[6-(4-methylpyridin-2-ylamino)pyridin-2-yl]thiazol-2-yl}-N-(2,2,2-trifluoroethyl)amino]piperidin-1-yl}ethanone], for which the IC50 in test [1] (Tables 1-x, compounds A) was > 1000 nM; in test [2] (Tables 1-x, compounds A), < 100 nM.

Turning to `Cc1ccnc(Nc2cccc(-c3cnc([C@@H]4CCC(=O)N4C)s3)n2)c1` [Compound A-373], the IC50 in test [1] (setting [3]) and in test [2] (setting [4]) was 100 to 1000 nM each time.

Take `Cc1ccnc(Nc2cccc(-c3cnc([C@H](C)OC(=O)N(C)C)s3)n2)c1` [Compound A-345, dimethylcarbamic acid(S)-1-{5-[6-(4-methylpyridin-2-ylamino)pyridin-2-yl]thiazol-2-yl}ethyl ester]: the IC50 in test [1] (setting [3]) was 100 to 1000 nM; in test [2] (setting [4]), < 100 nM.

As to `Cc1ccnc(Nc2cccc(-c3cnc(C4CCCC(C(=O)N5CCC(O)CC5)C4)s3)n2)c1` (stereo not shown) [Compound A-272], the concentration for half-maximal inhibition (IC50) in test [1] (setting [3]) and in test [2] (setting [4]) was 100 to 1000 nM in each case.

As for `CC(=O)N1CCC(CCc2ncc(-c3cccc(Nc4cc(C)ccn4)n3)s2)CC1` [Compound A-259], the IC50 in test [1] (setting [3]) and in test [2] (setting [4]) was 100 to 1000 nM throughout.

`Cc1ccnc(Nc2cccc(-c3cnc(N4CCCC(CO)C4)s3)n2)c1` (stereo not shown) [Compound A-498, (1-{5-[6-(4-methylpyridin-2-ylamino)pyridin-2-yl]thiazol-2-yl}piperidin-3-yl)methanol]: the IC50 in test [1] (Tables 1-x, compounds A) is 100 to 1000 nM; in test [2] (Tables 1-x, compounds A), < 100 nM.

Turning to `Cc1ccnc(Nc2cccc(-c3cnc(N(C)CC(=O)N(C)CC(=O)O)s3)n2)c1` [Compound A-580, {N-methyl-N-[2-(N′-methyl-N′-{5-[6-(4-methylpyridin-2-ylamino)pyridin-2-yl]thiazol-2-yl}amino)acetyl]amino}acetic acid dihydrochloride], the IC50 in test [1] (Tables 1-x, compounds A) was > 1000 nM; in test [2] (Tables 1-x, compounds A), < 100 nM.

For `Cc1ccnc(Nc2cccc(-c3cnc([C@@H](N)C(C)C)s3)n2)c1` [Compound A-37], the figures for the IC50 in test [1] (setting [3]) and in test [2] (setting [4]) were > 1000 nM and 100 to 1000 nM, respectively.

Consider `Cc1ccnc(Nc2cccc(-c3cnc([C@H]4CC[C@H](C#N)CC4)s3)n2)c1` [Compound A-316, trans-4-{5-[6-(4-methylpyridin-2-ylamino)pyridin-2-yl]thiazol-2-yl}cyclohexanecarbonitrile], for which the figures for the IC50 in test [1] (setting [3]) and in test [2] (setting [4]) were 100 to 1000 nM and < 100 nM, respectively.

`Cc1ccnc(Nc2cccc(-c3cnc([C@@H](O)CN(C)C)s3)n2)c1` [Compound A-375]: the IC50 in test [1] (setting [3]) and in test [2] (setting [4]) was 100 to 1000 nM in each case.

As to `CNC(=O)CN1CCN(c2ncc(-c3cccc(Nc4cc(C)ccn4)n3)s2)CC1=O` [Compound A-466, N-methyl-2-(4-{5-[6-(4-methylpyridin-2-ylamino)pyridin-2-yl]thiazol-2-yl}-2-oxopiperazin-1-yl)acetamide], the IC50 in test [1] (Tables 1-x, compounds A) is > 1000 nM; in test [2] (Tables 1-x, compounds A), < 100 nM.

Turning to `COC(=O)CCNCc1ncc(-c2cccc(Nc3cc(C)ccn3)n2)s1` [Compound A-163], the IC50 in test [1] (setting [3]) was > 1000 nM; in test [2] (setting [4]) it was 100 to 1000 nM.

Consider `Cc1ccnc(Nc2cccc(-c3cnc(COC(=O)NC[C@H]4CC[C@H](C(=O)O)CC4)s3)n2)c1` [Compound A-206], for which the IC50 in test [1] (setting [3]) and in test [2] (setting [4]) was > 1000 nM throughout.

Regarding `Cc1ccnc(Nc2cccc(-c3cnc(N4CCC(CC(=O)O)C4)s3)n2)c1` (stereo not shown) [Compound A-588, (1-{5-[6-(4-methylpyridin-2-ylamino)pyridin-2-yl]thiazol-2-yl}pyrrolidin-3-yl)acetic acid], the IC50 in test [1] (Tables 1-x, compounds A) was > 1000 nM; in test [2] (Tables 1-x, compounds A), < 100 nM.

Turning to `CC(=O)N[C@@H](C)c1ncc(-c2cccc(Nc3cc(C(C)=O)ccn3)n2)s1` [Compound A-212], the IC50 in test [1] (setting [3]) and in test [2] (setting [4]) was 100 to 1000 nM throughout.

Take `Cc1ccnc(Nc2cccc(-c3cnc(C(C)(C)N)s3)n2)c1` [Compound A-113]: the IC50 in test [1] (setting [3]) and in test [2] (setting [4]) was 100 to 1000 nM in each case.

`CNC(=O)c1ncc(-c2cccc(Nc3cc(C)ccn3)n2)s1` [Compound A-47, N-methyl-5-[6-(4-methylpyridin-2-ylamino)pyridin-2-yl]thiazole-2-carboxamide]: the figures for the IC50 in test [1] (setting [3]) and in test [2] (setting [4]) were 100 to 1000 nM and < 100 nM, respectively.

In the case of `CC(=O)OC(Cc1ccc(O)cc1)c1ncc(-c2cccc(Nc3cc(C)ccn3)n2)s1` (stereo not shown) [Compound A-366], the IC50 in test [1] (setting [3]) and in test [2] (setting [4]) was 100 to 1000 nM in each case.

For the compound `Cc1ccnc(Nc2cccc(-c3cnc([C@H]4CC[C@H](C(=O)NCCO)CC4)s3)n2)c1` [Compound A-267, N-(2-hydroxyethyl)-trans-4-{5-[6-(4-methylpyridin-2-ylamino)pyridin-2-yl]thiazol-2-yl}cyclohexanecarboxamide], the figures for the IC50 in test [1] (setting [3]) and in test [2] (setting [4]) were 100 to 1000 nM and < 100 nM, respectively.

`Cc1ccnc(Nc2cccc(-c3sc([C@H](C)NC(=O)CCC(=O)O)nc3C)n2)c1` [Compound A-116]: the IC50 in test [1] (setting [3]) and in test [2] (setting [4]) was > 1000 nM each time.

Consider `Cc1ccnc(Nc2cccc(-c3cnc(N(C)C4CCC(C(N)=O)CC4)s3)n2)c1` (stereo not shown) [Compound A-446, 4-(N-methyl-N-{5-[6-(4-methylpyridin-2-ylamino)pyridin-2-yl]thiazol-2-yl}amino)cyclohexanecarboxamide], for which the half-inhibitory concentration (IC50) was 100 to 1000 nM in test [1] (Tables 1-x, compounds A) and < 100 nM in test [2] (Tables 1-x, compounds A).

`C[C@H](O)c1ncc(-c2cccc(Nc3cc(CCO)ccn3)n2)s1` [Compound A-321, (S)-1-(5-{6-[4-(2-hydroxyethyl)pyridin-2-ylamino]pyridin-2-yl}thiazol-2-yl)ethanol]: the IC50 in test [1] (setting [3]) and in test [2] (setting [4]) was < 100 nM in each case.

Regarding `COC(=O)COCc1ncc(-c2cccc(Nc3cc(C)ccn3)n2)s1` [Compound A-361], the concentration for half-maximal inhibition (IC50) in test [1] (setting [3]) and in test [2] (setting [4]) was 100 to 1000 nM throughout.

As for `CC(=O)N1CCC(c2ncc(-c3cccc(Nc4cc(C)ccn4)n3)s2)CC1` [Compound A-94], the IC50 in test [1] (setting [3]) and in test [2] (setting [4]) was 100 to 1000 nM in each case.

With `CC(=O)O[C@@H]1C[C@@H](c2ncc(-c3cccc(Nc4cc(C)ccn4)n3)s2)N(C(C)=O)C1` [Compound A-93], the IC50 in test [1] (setting [3]) is > 1000 nM; in test [2] (setting [4]), 100 to 1000 nM.

For `Cc1ccnc(Nc2cccc(-c3cnc(C)s3)n2)c1` [Compound A-231], the IC50 in test [1] (setting [3]) and in test [2] (setting [4]) was 100 to 1000 nM throughout.

As to `Cc1ccnc(Nc2cccc(-c3cnc(CN4C[C@@H](O)[C@@H](O)C4)s3)n2)c1` [Compound A-381], the IC50 fell in the range of 100 to 1000 nM in test [1] (Tables 1-x, compounds A) and 100 to 1000 nM in test [2] (Tables 1-x, compounds A).

For `Cc1ccnc(Nc2cccc(-c3cnc(CCc4cccc(CO)c4)s3)n2)c1` [Compound A-277, [3-(2-{5-[6-(4-methylpyridin-2-ylamino)pyridin-2-yl]thiazol-2-yl}ethyl)phenyl]methanol], the IC50 is 100 to 1000 nM in test [1] (setting [3]) and < 100 nM in test [2] (setting [4]).

As for `Cc1ccnc(Nc2cccc(-c3cnc(N4CCC(CCC(=O)O)CC4)s3)n2)c1` [Compound A-17, 3-(1-{5-[6-(4-methyl-pyridin-2-ylamino)pyridin-2-yl]thiazol-2-yl}piperidin-4-yl)propionic acid], the IC50 was 100 to 1000 nM in test [1] (setting [3]) and < 100 nM in test [2] (setting [4]).

Consider `Cc1ccnc(Nc2cccc(-c3cnc([C@@H](NC(=O)OC(C)(C)C)C(C)C)s3)n2)c1` [Compound A-36], for which the IC50 in test [1] (setting [3]) and in test [2] (setting [4]) was > 1000 nM in each case.

For the compound `Cc1ccnc(Nc2cccc(-c3cnc(N(C)CCNC(=O)CO)s3)n2)c1` [Compound A-509, 2-hydroxy-N-[2-(N′-methyl-{5-[6-(4-methylpyridin-2-ylamino)pyridin-2-yl]thiazol-2-yl}amino)ethyl]acetamide], the IC50 in test [1] (Tables 1-x, compounds A) was 100 to 1000 nM; in test [2] (Tables 1-x, compounds A), < 100 nM.

By IC50 is commonly meant the concentration that inhibits the measured activity by half.
